Entries after “also recorded” stand apart in the source; their conditions may differ.
What was measured:
[1] = tested on: A/WSN/33 (H1N1); format: cell-based
[2] = tested on: A/Udorn/72 (H3N2); format: cell-based
[3] = tested on: A/Switzerland/9715293/2013 (H3N2); format: cell-based
[4] = tested on: A/California/07/2009 (H1N1); format: cell-based
[5] = tested on: A/Texas/04/2009 (H1N1); format: cell-based
[6] = tested on: A/Denmark/524/2009 (H1N1); format: cell-based
[7] = tested on: A/Denmark/528/2009 (H1N1); format: cell-based
[8] = tested on: B/Wisconsin/1/2010 (Yamagata); format: cell-based
[9] = tested on: B/Brisbane/60/2008 (Victoria); format: cell-based
[10] = tested on: B/Phuket/3073/2013 (Yamagata); format: cell-based
[11] = tested on: A/WSN/33 (H1N1); format: cell-based, Influenza A virus
[12] = tested on: clinically isolated influenza A and B viruses; format: cell-based
[13] = tested on: isomerase activity of CypA; conditions: ref Ni et al., 2009; cited from earlier work
[14] = biological target: A/WSN/33 (H1N1) viral polymerase activity (Influenza A virus, UniProt P15682); format: cell-based, influenza A/WSN/33 virus
Sequence of A/WSN/33 (H1N1) viral polymerase activity (P15682 whole entry, looked up): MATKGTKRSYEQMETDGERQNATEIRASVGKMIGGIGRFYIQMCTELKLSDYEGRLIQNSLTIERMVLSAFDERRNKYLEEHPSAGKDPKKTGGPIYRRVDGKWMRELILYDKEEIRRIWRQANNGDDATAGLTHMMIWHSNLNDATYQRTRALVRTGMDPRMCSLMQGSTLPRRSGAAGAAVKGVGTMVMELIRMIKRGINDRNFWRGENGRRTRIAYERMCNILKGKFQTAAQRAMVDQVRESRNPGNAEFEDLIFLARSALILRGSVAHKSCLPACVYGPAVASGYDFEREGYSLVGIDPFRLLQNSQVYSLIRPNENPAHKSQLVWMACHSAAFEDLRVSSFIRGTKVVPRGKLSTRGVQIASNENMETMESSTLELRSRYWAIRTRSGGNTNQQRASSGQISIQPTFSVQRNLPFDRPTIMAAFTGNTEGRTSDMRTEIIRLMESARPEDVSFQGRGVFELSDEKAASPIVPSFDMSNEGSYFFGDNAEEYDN

Row | Molecule | Sensitivity of influenza strain to drug [1] | Sensitivity of influenza strain to drug [2] | Sensitivity of influenza strain to drug [3] | Sensitivity of influenza strain to drug [4] | Sensitivity of influenza strain to drug [5] | Sensitivity of influenza strain to drug [6] | Sensitivity of influenza strain to drug [7] | Sensitivity of influenza strain to drug [8] | Sensitivity of influenza strain to drug [9] | Sensitivity of influenza strain to drug [10] | further results
1 | CCC(CC)O[C@@H]1C=C(C(=O)O)C[C@H](N)[C@H]1NC(C)=O [Oseltamivir carboxylate, oseltamivir carboxylate] | S | S | S | S | R (H275Y) | S | R (H275Y) | S | S | S | antiviral effect by time of addition [11]: potent antiviral effect even when added 8 hours post initial viral infection
2 | O=C(NC(=O)c1c(F)cccc1Cl)NC1c2ccccc2-c2ccccc21 [TMN355 (2)] | – | – | – | – | – | – | – | – | – | – | effect on replication of several influenza A and B strains [12]: had no effect on the replication; potency in inhibiting the isomerase activity of CypA relative to CsA (1) [13]: 27 times
3 | NC12CC3CC(CC(C3)C1)C2 [Amantadine, amantadine] | R (S31N) | S | R (S31N) | R (S31N) | R (S31N) | R(S31N) | R (S31N) | R | R | R | –
4 | Cc1onc(-c2ccccc2)c1C(=O)N1CCN(c2ccc([N+](=O)[O-])cc2Cl)CC1 [nucleozin (21), nucleozin] | – | – | – | – | – | – | – | – | – | – | viral polymerase activity (normalized luciferase ratio) [14]: completely inhibited the viral polymerase activity
5 | Cyclosporine C [CsC (3)] | – | – | – | – | – | – | – | – | – | – | antiviral efficacy against A/WSN/33 (H1N1) compared with CsA (1) [1]: less active; also recorded: slightly less effective than CsA (1)

Reference: PMC5026937 (Antiviral research, 2016)
